# Source: patent publication US12234231B2, “EIF4E inhibitors and uses thereof” (PIC Therapeutics, Inc., priority 2021, dated 2025)
# pIC50: −log10 of the molar value.
# Target: T1, Human eIF4E (aa 28-217) (Homo sapiens, UniProt P06730)
# T1 construct: Human eIF4E (aa 28-217) with a C-terminal His-tag; made in house
# Experiment: Human eIF4E/4G2 binding assay (TR-FRET)
# Conditions: purified eIF4E with biotin labeled 4G2 peptide, 4 hours preincubation at room temperature
# Description: Example 3. Compound Testing in Human eIF4E/4G2 Binding Assay
# 1004461 Human eIF4E (aa 28-217) with a C-terminal His-tag was expressed in E. coli in inclusion bodies. The protein was solubilized with 8 M urea and purified under denaturing conditions using nickel-charged HisTrap HP columns (GE Healthcare). The purified protein was then refolded by diluting in 20 mM Hepes pH 7.0, 0.5 M NaCl, 1 mM DTT, 1 mM EDTA, 0.5 M arginine plus 6 M urea, and then dialyzing overnight into the same buffer without the urea. The protein was further dialyzed into 20 mM Hepes, pH 6.5, 50 mM NaCl, 1 mM EDTA, 1 mM DTT, and concentrated using Hitrap SP sepharose FF columns (GE Healthcare). The concentrated protein was dialyzed into 20 mM Hepes, pH 7.0, 0.5M NaCl, 5 mM DTT and 10% glycerol, and stored at −80° C. until use.
# Test compounds (3.43 mM stock in DMSO) were diluted 2-fold in series in DMSO (10 concentration points). Compound solutions (1.2 μl/well) were added into black 384-well polypropylene microplates (Matrix, Thermal Scientific). Twenty-two microliters per well of Assay Buffer (50 mM NaPi, pH 6.5, 50 mM KCl, 1 mM DTT and 0.5 mg/ml gamma globulin) and eight microliters per well of 82.5 nM purified eIF4E in Assay Buffer were added. The samples were incubated at room temperature (20-23° C.) for 4 hours. Biotin labeled 4G2 peptide (Ac-Lys-Gln-Tyr-Asp-Arg-Glu-Phe-Leu-Leu-Asp-Phe-Gln-Phe-Met-Pro-Lys(Aha-Bio)-NH2, 1.75 μM stock in DMSO) was diluted to 0.14 μM in Assay Buffer (without DTT) and 5 μl/well was added. The samples were incubated at room temperature for 20 min. Five microliters per well of 6.4 nM Eu-streptavidin (Eu-SA, Perkin Elmer) and 80 nM Allophycocyanin (APC)-anti His antibody (Columbia Biosciences) in Assay Buffer (without DTT) were then added and the samples were incubated at room temperature for 20 min.
# Assay signals were monitored by reading excitation at 340 nm and emission fluorescence at 615 nm and 665 nm on an Envision reader (Perkin Elmer). Normalized TR-FRET (time-resolved fluorescence resonance energy transfer) assay signal (Rn) was calculated by the formula: Rn=[(A−Ba−C×D)/(D−Bd)]×(Dc−Bd) • Where A is the fluorescence intensity of the sample at 665 nm, • D is the fluorescence intensity of the sample at 615 nm, • Ba and Bd are plate backgrounds at 665 nm and 615 nm, respectively, • Dc is the fluorescence intensity of 0.78 nM Eu-SA in the assay buffer at 615 nm
# The cross-talk factor (C) is determined by the following formula: C=(Ac−Ba)/(Dc−Bd) Where Ac is the fluorescence intensity of 0.78 nM Eu-SA in the assay buffer at 665 nm.
# IC50 values were calculated using xLFit program (IDBS). Table 2 below lists EC50 of some compounds, wherein A represents IC50≤0.5 μM; B represents 0.5 uM<IC50≤1 μM; and C represents IC50>1 μM.
# T1 sequence (P06730 28-217): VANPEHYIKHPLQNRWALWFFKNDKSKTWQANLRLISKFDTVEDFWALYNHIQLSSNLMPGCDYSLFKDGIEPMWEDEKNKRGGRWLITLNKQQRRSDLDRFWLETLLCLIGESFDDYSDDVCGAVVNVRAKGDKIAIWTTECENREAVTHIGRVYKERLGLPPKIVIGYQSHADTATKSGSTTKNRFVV
row,pIC50,SMILES
1,6.00 to 6.30,COCCOc1ccc(-c2nc(Nc3ncc(-c4cccs4)cc3C(=O)O)sc2CC(C)C)cc1F [I-30]
2,≥ 6.30,COCCOc1cc(-c2nc(Nc3ncc(-c4cccs4)cc3C(=O)O)sc2CC(C)(C)C)ccc1Cl [I-95]
3,< 6.00,"CNCCNC(=O)c1cc(-c2cccs2)cnc1Nc1nc(-c2ccc(OCCOC)c(F)c2)c(CC(C)C)s1 [I-56, 2-((4-(3-fluoro-4-(2-methoxyethoxy)phenyl)-5-isobutylthiazol-2-yl)amino)-N-(2-(methylamino)ethyl)-5-(thiophen-2-yl)nicotinamide]"
4,≥ 6.30,COCCOc1ccc(-c2nc(Nc3cnc(-c4cccs4)cc3C(=O)O)sc2Cc2ccccc2)cc1F [I-63]
